Test systems include SF-268 CNS; RXF 393 renal; KM12 colon; SW-620 colon; K-562 leukemia; HL-60(TB) leukemia; HCT-15 colon; MDA-MB-435; SNB-75 CNS.
Experiment in all cases: DTP human tumour cell line panel, 48 h

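Method: 48-hour compound exposure of cells in 96-well plates, five concentrations, linear interpolation of endpoints. TGI is the concentration that stops growth completely.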 Bounds are passed on as bounds.

By TGI is commonly meant the concentration giving total growth inhibition. Lower therefore signals greater sensitivity of the cells.

For `O=c1ccn([C@@H]2C[C@@H]2CO)c(=O)[nH]1`, the concentration for total growth inhibition (TGI) in the assay on SF-268 CNS, in the assay with RXF 393 renal, in the assay on KM12 colon, with SW-620 colon, with K-562 leukemia and in the assay with HL-60(TB) leukemia was above 100 µM throughout. The TGI in the assay with HCT-15 colon, in the assay on MDA-MB-435 and in the assay with SNB-75 CNS was above 100 µM each time.

With `Cn1c2ccc3cc2c(=S)c2cc(ccc21)OCCOCCOCCOCCOCCO3`, the TGI in the assay with SF-268 CNS, in the assay with RXF 393 renal, in the assay with KM12 colon, in the assay on SW-620 colon, in the assay with K-562 leukemia and in the assay with HL-60(TB) leukemia was above 10 µM throughout. For the same compound, the TGI in the assay with HCT-15 colon, with MDA-MB-435 and in the assay with SNB-75 CNS was above 10 µM each time.

With `O=C(NCCNCCCNC(=O)c1cc(-c2ccccc2)nc2ccccc12)c1cccc(O)c1O`, the TGI with SF-268 CNS was 16.4 µM; in the assay on RXF 393 renal, 47.7 µM; in the assay with KM12 colon, 76.6 µM; in the assay on SW-620 colon it was above 100 µM; in the assay on K-562 leukemia it was 11.1 µM; in the assay on HL-60(TB) leukemia it was above 100 µM. Further, the figures for the TGI in the assay with HCT-15 colon, in the assay with MDA-MB-435 and in the assay with SNB-75 CNS were 26.8 µM, 13.1 µM and 60.9 µM, respectively.

For the compound `C=CCC1(OC(C)=O)C2OC(=O)C1(O)OCC2O` (stereo unspecified), the TGI in the assay on SF-268 CNS, in the assay on RXF 393 renal, in the assay on KM12 colon, in the assay with SW-620 colon, with K-562 leukemia and in the assay on HL-60(TB) leukemia was above 100 µM throughout. Also, the TGI in the assay with HCT-15 colon is above 100 µM; in the assay on MDA-MB-435, above 100 µM; with SNB-75 CNS it was 98.9 µM.

Turning to `Cc1nn(C(=O)c2ccc(Cl)cc2)c2c1C(c1ccccc1[N+](=O)[O-])SC(N)=N2` (stereo unspecified), the TGI is above 10 µM in the assay on SF-268 CNS; 2.25 µM in the assay on RXF 393 renal; above 10 µM in the assay with KM12 colon; above 10 µM with SW-620 colon; above 10 µM in the assay with K-562 leukemia; above 10 µM in the assay with HL-60(TB) leukemia. Also, the TGI with HCT-15 colon, in the assay with MDA-MB-435 and in the assay with SNB-75 CNS was above 10 µM in each case.

On to `N#CC(=C1CCN(CCCC(=O)c2ccc(F)cc2)CC1)c1ccccc1`, for which the TGI with SF-268 CNS, in the assay with RXF 393 renal, in the assay on KM12 colon, in the assay on SW-620 colon, with K-562 leukemia and in the assay on HL-60(TB) leukemia was above 100 µM throughout. Also, the TGI with HCT-15 colon, in the assay with MDA-MB-435 and in the assay on SNB-75 CNS was above 100 µM each time.

Consider `C[C@@H](c1ccccc1)N1CN(C(=O)OCc2ccccc2)C(C)(C)CC1=O`, for which the TGI in the assay on SF-268 CNS is above 100 µM; in the assay with RXF 393 renal, 70.9 µM; with KM12 colon, above 100 µM; in the assay on SW-620 colon, above 100 µM; in the assay with K-562 leukemia, above 100 µM; in the assay with HL-60(TB) leukemia, above 100 µM. Moreover, the TGI in the assay with HCT-15 colon, in the assay on MDA-MB-435 and in the assay on SNB-75 CNS was above 100 µM throughout.

Take `CC[C@]1(Cc2ccc(OC)c(OC)c2)C=[N+]([O-])O[C@H](OC2CCCC2(c2ccccc2)c2ccccc2)[C@@H]1OC(C)=O` (stereo partly specified): the TGI in the assay on SF-268 CNS is 11.4 µM; with RXF 393 renal it was 4.35 µM; in the assay on KM12 colon it was 8.89 µM; with SW-620 colon, above 100 µM; in the assay on K-562 leukemia, above 27.7 µM; in the assay on HL-60(TB) leukemia, 18.8 µM. Also, the TGI amounted to 15.8 µM in the assay with HCT-15 colon, 7 µM in the assay with MDA-MB-435 and 9.62 µM in the assay on SNB-75 CNS.

On to `COc1ccc(-n2cnc3c2NC(C)(C)N=C3C(N)=O)c(OC)c1`, for which the TGI in the assay with SF-268 CNS, with RXF 393 renal, with KM12 colon, with SW-620 colon, with K-562 leukemia and in the assay on HL-60(TB) leukemia was above 100 µM throughout. In addition, the TGI in the assay with HCT-15 colon, in the assay with MDA-MB-435 and in the assay on SNB-75 CNS was above 100 µM each time.

Take `C=CCOC(=O)NC1C(OC(C)[C@@H](NC(=O)OCc2ccccc2)C(=O)OC(C)(C)C)OC(COC(C)=O)C(OC(C)=O)C1OC(C)=O` (stereo partly specified): the TGI in the assay on SF-268 CNS, in the assay with RXF 393 renal, in the assay on KM12 colon, in the assay with SW-620 colon, in the assay with K-562 leukemia and in the assay with HL-60(TB) leukemia was above 100 µM each time. Also, the TGI in the assay with HCT-15 colon is above 100 µM; in the assay with MDA-MB-435, above 100 µM; with SNB-75 CNS it was 9.46 µM.

For the compound `NC(=O)c1cc2ccc(O)cc2oc1=Nc1ccccc1`, the TGI with SF-268 CNS was above 100 µM; in the assay on RXF 393 renal, above 100 µM; with KM12 colon it was above 100 µM; with SW-620 colon, above 100 µM; with K-562 leukemia, above 100 µM; with HL-60(TB) leukemia it was 62.4 µM. The figures for the TGI in the assay with HCT-15 colon, in the assay on MDA-MB-435 and with SNB-75 CNS were above 100 µM, above 100 µM and 68.3 µM, respectively.

As to `O=S(Nc1ccccc1)c1cccc(Cl)c1` (stereo unspecified), the TGI with SF-268 CNS, in the assay on RXF 393 renal, with KM12 colon, with SW-620 colon, with K-562 leukemia and with HL-60(TB) leukemia was above 100 µM each time. The TGI with HCT-15 colon, with MDA-MB-435 and in the assay with SNB-75 CNS was above 100 µM throughout.

With `COc1ccc(-n2c(=O)[nH]n(C(C)=O)c2=O)cc1`, the TGI with SF-268 CNS, with RXF 393 renal, in the assay with KM12 colon, in the assay on SW-620 colon, in the assay with K-562 leukemia and in the assay on HL-60(TB) leukemia was above 100 µM each time. The TGI with HCT-15 colon, in the assay with MDA-MB-435 and with SNB-75 CNS was above 100 µM in each case.

Regarding `O=C(CCc1ccc(O)c(O)c1)NCCc1cc(O)cc(O)c1`, the TGI is above 100 µM in the assay with SF-268 CNS; above 100 µM with RXF 393 renal; above 100 µM in the assay on KM12 colon; above 100 µM in the assay on SW-620 colon; 79.4 µM with K-562 leukemia; above 100 µM in the assay with HL-60(TB) leukemia. The TGI in the assay on HCT-15 colon is above 100 µM; with MDA-MB-435 it was 66.6 µM; in the assay on SNB-75 CNS it was above 100 µM.

The values above are taken from PubChem BioAssay (NCI).
